Results taken from publication PMC6277434, “Discovery of a potent HMG-CoA reductase degrader that eliminates statin-induced reductase accumulation and lowers cholesterol” (Nature Communications, 2018).
Where “and” joins values, the source holds several entries; their conditions need not be identical. Identical values can stand only once.

Test system: Ldlr−/− mice on a western diet
Assay: Atherosclerosis model: Ldlr−/− mice on western diet (Sudan IV aorta lesions, TC/TG, FPLC)
Format: in vivo
Conditions: for atherosclerotic lesions (en face Sudan IV staining of aortas), individual mice / atherosclerotic lesions (en face Sudan IV staining of aortas), mean: 60 mg/kg/day (each agent) gavage once daily 20 weeks; for aorta atherosclerotic lesions compared with vehicle / elevations of serum and liver TC and TG / serum cholesterol levels in VLDL, LDL and HDL (FPLC): 20 weeks; for aorta atherosclerotic lesions compared with vehicle: in words; for elevations of serum and liver TC and TG / serum cholesterol levels in VLDL, LDL and HDL (FPLC): Ldlr−/− mice, WD
From the text: Male C57BL/6 mice (8-week-old) were obtained from Shanghai Laboratory Animal Company (SLAC) (Shanghai, China). Male Ldlr^−/− mice (8-week-old) were obtained from Nanjing Biomedical Research Institute of Nanjing University (Nanjing, China). Mice had ad libitum access to water and standard chow diet (SLAC) unless mentioned otherwise. Special diets included medium-fat-medium-cholesterol diet (chow diet with10% fat, 0.2% cholesterol and 0.5% sodium cholate, custom made in SLAC), and western diet (20% fat, 1.25% cholesterol, 0.5% sodium cholate, D12109C, Research Diets). Mice were maintained in a pathogen-free environment and kept on a 12-h light/dark schedule. Mice were gavaged as described in figure legends with saline containing 0.5% methyl cellulose and 0.5% Tween-80. All mice were used in accordance with the guidelines approved by the Institutional Animal Care and Use Committee of Wuhan University.
Mice were anesthetized and blood collection was performed. Serum was prepared from blood by centrifuging at 1500 × g for 10 min. Livers were harvested and homogenized in a 2:1 mixture of chloroform and methanol using Precellys 24 (Bertin). The organic phase was dried under N2 and liver lipids were reconstituted in ethanol. Total cholesterol and triglyceride levels in the serum and liver were determined using Cholesterol Assay Kit and Triglyceride Assay Kit (Shanghai Kehua Bio-engineering, China).
To examine aorta atherosclerotic lesions, the aortic tree was isolated and fixed with 4% PFA. After removing perivascular adipose tissues, the atherosclerotic lesions were stained with Sudan IV for 10 min and washed with 70% ethanol for 3 min. The aortic tree was pinned to the black wax-filled petri dish containing PBS and imaged under a stereoscopic microscope (Olympus SZX16). The atherosclerotic lesions were quantified with Image J software (NIH)[66].
Serum lipoproteins were separated by FPLC (AKTA, GE Healthcare) using Superdex 75 10/300 GL (GE Healthcare) column. One hundred microliters pooled serum from five mice per group was diluted with 200 μl PBS, and loaded to the column. Fractions were eluted with PBS at a constant rate of 0.2 ml min^–1, and collected with 300 μl per tube. 100 μl fractions were used to quantify the concentration of total cholesterol level with the Amplex Red Cholesterol Assay Kit (Invitrogen). The cholesterol distribution curves of lipoproteins were done with GraphPad Prism 6 software.

Row | SMILES | atherosclerotic lesions (en face Sudan IV staining of aortas), individual mice | atherosclerotic lesions (en face Sudan IV staining of aortas), mean | aorta atherosclerotic lesions compared with vehicle | elevations of serum and liver TC and TG | serum cholesterol levels in VLDL, LDL and HDL (FPLC)
1 | C=CCC(O)(CC=C)CCCC(C)C1CCC2C3C(O)C=C4C(C)(C)C(O)CCC4(C)C3CCC12C (stereo not shown) [Cmpd 81] | 32.5011 and 38.2916 and 37.5217 and 25.3733 and 31 | 32.9375 | Significantly less aorta lesions | significant effects on alleviating the elevations | remarkably reduced
2 | CC[C@H](C)C(=O)O[C@H]1C[C@@H](C)C=C2C=C[C@H](C)[C@H](CC[C@@H]3C[C@@H](O)CC(=O)O3)[C@H]21 [Lovastatin, lovastatin] | 31.5731 and 31.0783 and 37.0572 and 32.3991 and 25 | 31.4215 | Significantly less aorta lesions | significant effects on alleviating the elevations | remarkably reduced
